pIC50: −log10 of the molar value.
Each molecule was assayed against PHF (paired helical filaments) isolated from the brain of an Alzheimer's disease patient (Homo sapiens, UniProt P10636) (assay: Competitive binding assay: displacement of primulin fluorescence from PHFs). Conditions: compound fluorescent, no P50 obtainable.
Parameters: key to P50: fl indicates that the compound is fluorescent. Consequently, binding levels for the compound in the competition binding assay cannot be determined by fluorescent spectroscopy
Description: The DSB compounds were tested for their ability to bind to PHF in a competition-style assay.
If a test compound that also binds to PHFs with the same or greater affinity is added, it will displace the reference ligand and reduce the fluorescence signal. In the present assay, the reference compound is primulin, which was added at 1 μM. Test compounds were added at concentrations from 0.05 to 1 μM. The P50 for a test compound is defined as the concentration of compound that reduces the primulin signal to 50% of the control value. This value is, therefore, not an absolute affinity, but a relative affinity compared to the affinity of primulin.
PHFs were isolated from the brain of an Alzheimer's disease patient essentially as described by Wischik et al. (Neurobiology of Aging, Vol. 16, pp. 409-431, 1995). The IFII fraction was isolated by centrifugation on a sucrose gradient as described in the PhD thesis of C. M. Wischik, and was further extracted into an ‘abc sup’ as described by C. M. Wischik (Thesis “The structure and biochemistry of paired helical filaments in Alzheimer's disease” Part I and II; Cambridge University, 1989).
The assay for ligand activity was performed in 96 well plates (Nunc Cat. No. 236108). The test compound at the required concentration was mixed with PHFs, then primulin was added to give a final concentration of 1 μM and a total volume of 100 μl. The concentration of PHFs added was determined for each preparation to give an adequate fluorescence signal, and was typically in the range 1-2 μl/100 μl. The test compounds were typically dissolved in DMSO to give a final concentration of 10% DMSO in the assay. The control fluorescence, in the absence of PHFs, was also measured in the presence of 10% DMSO.
The fluorescence was measured in a Varian Carey Eclipse Fluorescence Spectrophotometer, with the […] wavelength at 480 nm. Excitation spectra were recorded and corrected by subtraction of the signal measured in the absence of PHFs, using the Varian software. The fluorescence signal at the peak […] wavelength of 420 nm was measured from the corrected spectra. The fluorescence values were plotted as a function of concentration of test compound, and the value for P50 measured from the graph.

PHF (paired helical filaments) isolated from the brain of an Alzheimer's disease patient, sequence (P10636 623-708 limits assumed): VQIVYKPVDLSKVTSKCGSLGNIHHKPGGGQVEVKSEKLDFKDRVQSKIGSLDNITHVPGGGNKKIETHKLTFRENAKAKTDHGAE

| P50 | Compound |
| --- | --- |
| fl | Cc1ccc2nc(-c3ccc(/C=C/c4ccc(N(C)C)cc4)cc3)sc2c1 [BEMA-08] |
| fl | Oc1ccc2nc(-c3ccc(/C=C/c4cc(OC(F)(F)F)ccc4O)cc3)sc2c1 [BEHF-06] |
| fl | Oc1ccc2nc(-c3ccc(/C=C/c4ccc(NCC(F)(F)F)cc4)cc3)sc2c1 [BEHF-02] |
| fl | COc1ccc2nc(-c3ccc(/C=C/c4ccc(F)cc4)cc3)sc2c1 [BEFA-10] |
| fl | COc1ccc2nc(-c3ccc(/C=C/c4ccc(NC(=O)C(F)(F)F)cc4)cc3)sc2c1 [BEFA-06] |

Same assay, conditions: concentration that reduces the signal of 1 μM primulin to 50% of control; relative affinity

| Compound | P50 |
| --- | --- |
| COc1ccc2nc(-c3ccc(NC(=O)c4ccc(F)cc4)cc3)sc2c1 [ABMFMA-01] | no effect |
| COc1ccc2nc(-c3ccc(/C=C/c4ccc(N)cc4)cc3)sc2c1 [BEMOA-06] | no effect |
| COc1ccc2nc(-c3ccc(NC(=O)c4ccc(N(C)C)cc4C(F)(F)F)cc3)sc2c1 [ABFMA-18] | no effect |
| Cc1ccc2nc(-c3ccc(NC(=O)c4ccccc4N(C)C)cc3)sc2c1 [ABAA-07] | no effect |
| COc1ccc2nc(-c3ccc(NC(=O)c4ccc(C(F)(F)F)cc4)cc3)sc2c1 [ABFMA-03] | no effect |
| COc1ccc(C(=O)Nc2ccc(-c3nc4ccc(OC)cc4s3)cc2OC)c(C(F)(F)F)c1 [ABFMA-10] | no effect |
| COc1ccc2nc(-c3ccc(NC(=O)c4ccc(N)cc4C(F)(F)F)cc3)sc2c1 [ABFMA-16] | no effect |
| COc1ccc2nc(-c3ccc(NC(=O)c4ccccc4C(F)(F)F)cc3)sc2c1 [ABFMA-01] | no effect |
| COc1ccc2nc(-c3ccc(NC(=O)c4ccc(OCCF)cc4)cc3)sc2c1 [ABMFMA-06] | no effect |
| Cc1ccc2nc(-c3ccc(NC(=O)c4ccccc4N)cc3)sc2c1 [ABAA-04] | no effect |
| Cc1ccc2nc(-c3ccc(NC(=O)c4cccc(N)c4)cc3)sc2c1 [ABAA-05] | no effect |
| COc1cc(NC(=O)c2ccccc2N(C)C)ccc1-c1nc2ccc(O)cc2s1 [ABHA-04] | no effect |
| Oc1ccc(/N=N/c2ccc(-c3nc4cc(OC(F)(F)F)ccc4s3)cc2)cc1 [BDF-09] | no effect |
| O=C(Nc1ccc(-c2nc3ccc(O)cc3s2)cc1)c1ccc(OCCC(F)(F)F)cc1 [ABFHA-04] | no effect |

Next, values leading:

| P50 | Compound |
| --- | --- |
| no effect | Cc1ccc2nc(-c3ccc(/C=C/c4cccc(N)c4)cc3)sc2c1 [BEMA-06] |
| no effect | COc1ccc2nc(-c3ccc(/C=C/c4ccccc4C(F)(F)F)cc3)sc2c1 [BEFA-01] |
| no effect | COc1cccc(/C=C/c2ccc(-c3nc4ccc(C)cc4s3)cc2)c1 [BEMA-12] |
| no effect | Cc1ccc2nc(-c3ccc(NC(=O)c4ccncc4)cc3)cn2c1 [AIPN-03] |
| no effect | COc1ccc2nc(-c3ccc(/C=C/c4ccc(OCCF)cc4)cc3)sc2c1 [BEFA-12] |
| no effect | COc1ccc2nc(-c3ccc(/C=C/c4ccc(NCCCC(F)(F)F)cc4)cc3)sc2c1 [BEFA-09] |
| no effect | Cc1ccc2nc(-c3ccc(/C=C/c4ccccc4)cc3)sc2c1 [BEMA-01] |
| no effect | Cc1ccc2nc(-c3ccc(/C=C/c4ccccc4N)cc3)sc2c1 [BEMA-05] |
| no effect | CN(C)c1ccc(C(=O)Nc2ccc(-c3cn4cccnc4n3)cc2)cc1 [AIPM-01] |

Same assay, conditions: concentration that reduces the signal of 1 μM primulin to 50% of control; relative affinity; read-out: P50

| Compound | pIC50 |
| --- | --- |
| CN(C)CCOc1ccc2nc(-c3ccc(NC(=O)c4ccc([N+](=O)[O-])c(C(F)(F)F)c4)cc3)sc2c1 [ABDMAA-01] | 6.01 |
| Cc1ccc2nc(-c3ccc(NC(=O)c4ccccc4)cc3)sc2c1 [ABAA-10] | ~5.92 |
| Oc1ccc(/N=N/c2ccc(-c3nc4ccc(O)cc4s3)cc2)c(C(F)(F)F)c1 [BDF-04] | 7.10 |
| Nc1ccc(C(=O)Nc2ccc(-c3nc4ccc(O)cc4s3)cc2)cc1C(F)(F)F [ABFHA-02] | 6.47 |
| COc1cccc2sc(-c3ccc(/N=N/c4ccc(O)cc4C(F)(F)F)cc3)nc12 [BDF-13] | 6.46 |
| COc1ccc2nc(-c3ccc(/C=C/c4ccc([N+](=O)[O-])cc4)cc3)sc2c1 [BEMOA-03] | 7.40 |
| O=C(Nc1ccc(-c2nc3ccc(O)cc3s2)c(O)c1)c1cc(OC(F)(F)F)ccc1O [ABFHA-06] | 6.41 |
| COc1ccc2nc(-c3ccc(NC(=O)c4ccc(Br)c([N+](=O)[O-])c4)cc3)sc2c1 [ABMFMA-08] | < 6.00 |
| O=C(Nc1ccc(-c2nc3ccc(O)cc3s2)cc1)c1ccc([N+](=O)[O-])c(C(F)(F)F)c1 [ABFHA-01] | 6.72 |
| Oc1ccc(/N=N/c2ccc(-c3nc4ccc(OC(F)(F)F)cc4s3)cc2)cc1 [BDF-07] | 6.14 |
| COc1ccc2nc(-c3ccc(NC(=O)c4ccc(N)c(C(F)(F)F)c4)cc3)sc2c1 [ABFMA-15] | 6.37 |
| COc1ccc2nc(-c3ccc(/C=C/c4ccc(O)c([N+](=O)[O-])c4)cc3)sc2c1 [BEMOA-09] | 7.52 |
| O=C(Nc1ccc(-c2nc3ccc(O)cc3s2)cc1)c1ccc(F)c([N+](=O)[O-])c1 [ABFHA-11] | 6.51 |
| O=C(Nc1ccc(-c2nc3ccc(O)cc3s2)c(O)c1)c1ccc(F)cc1 [ABFHA-07] | 7.00 |
| CN(C)c1ccc2nc(-c3ccc(/N=N/c4ccc(O)cc4C(F)(F)F)cc3)sc2c1 [BDF-06] | 7.40 |
| Cc1ccc2nc(-c3ccc(NC(=O)c4cccc(O)c4)cc3)sc2c1 [ABAA-11] | ~5.92 |
| COc1ccc2nc(-c3ccc(NC(=O)c4ccc(Cl)nc4)cc3)sc2c1 [ABMFMA-03] | 6.47 |
| O=C(Nc1ccc(-c2nc3ccc(O)cc3s2)c(C(F)(F)F)c1)c1ccc(O)cc1 [ABFHA-10] | < 6.00 |
| COc1ccc2sc(-c3ccc(/N=N/c4ccc(C(F)(F)F)cc4O)cc3)nc2c1 [BDF-10] | 6.06 |
| Cc1ccc2nc(-c3ccc(/N=N/c4cc(C(F)(F)F)ccc4O)cc3)sc2c1 [BDF-02] | 6.34 |
| Oc1ccc(/N=N/c2ccc(-c3nc4ccc(O)cc4s3)c(O)c2)c(OCCCC(F)(F)F)c1 [BDF-15] | 6.85 |
| COc1ccc2nc(-c3ccc(NC(=O)c4ccc(F)nc4)cc3)sc2c1 [ABMFMA-02] | 6.05 |
| COCCOCCOCCOc1cc(NC(=O)c2ccc(F)c([N+](=O)[O-])c2)ccc1-c1nc2ccccc2s1 [AUB-02] | < 6.00 |
| Cc1ccc2nc(-c3ccc(NC(=O)c4ccc(N)cc4)cc3)sc2c1 [ABAA-06] | 6.28 |
| COc1ccc2nc(-c3ccc(/N=N/c4ccc(O)cc4C(F)(F)F)cc3)sc2c1 [BDF-03] | 6.89 |
| Oc1ccc(/N=N/c2ccc(-c3nc4ccc(O)cc4s3)cc2O)c(OC(F)(F)F)c1 [BDF-17] | 7.52 |
| CN(C)CCOc1ccc2nc(-c3ccc(NC(=O)c4ccc([N+](=O)[O-])c(C(F)(F)F)c4)cc3)sc2c1 [ABDMAA-02] | < 6.00 |
| Oc1ccc(/N=N/c2ccc(-c3nc4ccc(O)cc4s3)cc2O)c(C(F)(F)F)c1 [BDF-16] | 7.52 |

Second part, the molecule after the results:

| pIC50 | Compound |
| --- | --- |
| 6.77 | COc1ccc2nc(-c3ccc(NC(=O)c4ccc(N(C)C)cc4)cc3)sc2c1 [ABMA-09] |
| 6.51 | Cc1ccc2nc(-c3ccc(NC(=O)c4ccc(N(C)C)cc4)cc3)cn2c1 [AIPN-02] |
| 6.43 | COc1ccc2nc(-c3ccc(NC(=O)c4ccc(N)cc4)cc3)sc2c1 [ABMA-06] |
| 6.12 | Cc1ccc2nc(-c3ccc(NC(=O)c4ccc(N(C)C)c(F)c4)cc3)cn2c1 [AIPN-22] |
| < 6.00 | Cc1ccc2nc(-c3ccc(NC(=O)c4ccc(Cl)nc4)cc3)cn2c1 [AIPN-18] |
| < 6.00 | Cc1ccc2nc(-c3ccc(NC(=O)c4ccc(O)c(F)c4)cc3)cn2c1 [AIPN-27] |
| < 6.00 | Cc1ccc2nc(-c3ccc(NC(=O)c4cccc(F)n4)cc3)cn2c1 [AIPN-07] |
| ~5.92 | COc1ccc2nc(-c3ccc(NC(=O)c4cccc(N(C)C)c4)cc3)sc2c1 [ABMA-08] |
| < 6.00 | COc1ccc(C(=O)Nc2ccc(-c3cn4cc(C)ccc4n3)cc2)cc1C(F)(F)F [AIPN-28] |
| 6.74 | Cc1ccc2nc(-c3ccc(NC(=O)c4ccc(NO)c(C(F)(F)F)c4)cc3)cn2c1 [AIPN-10] |
| 6.51 | COc1ccc2nc(-c3ccc(NC(=O)c4ccc(OC(C)=O)cc4)cc3)sc2c1 [ABMA-10] |
| 6.30 | Cc1ccc2nc(-c3ccc(NC(=O)c4ccc(O)cc4)cc3)cn2c1 [AIPN-14] |
| 5.87 | COc1ccc2nc(-c3ccc(NC(=O)c4ccccc4N(C)C)cc3)sc2c1 [ABMA-07] |
| 6.02 | COc1ccc(C(=O)Nc2ccc(-c3cn4cc(C)ccc4n3)cc2)cc1F [AIPN-23] |
| 6.15 | Cc1ccc2nc(-c3ccc(NC(=O)c4ccc(O)cc4F)cc3)cn2c1 [AIPN-29] |
| 6.29 | Cc1ccc2nc(-c3ccc(NC(=O)c4ccccn4)cc3)cn2c1 [AIPN-05] |

From patent publication US8895313B2, “Ligands for aggregated tau molecules” (Wista Laboratories Ltd., priority 2008, dated 2014)
